Data reported in patent US20140051756A1, “METHOD FOR PREVENTING OR TREATING ARRHYTHMIA, METHOD FOR PREVENTING OR TREATING ATRIAL FIBRILLATION, MODEL OF SUSTAINED ATRIAL FIBRILLATION, METHOD FOR PRODUCING THE MODEL, AND METHOD FOR SCREENING FOR ATRIAL FIBRILLATION INHIBITOR” (Toho University, priority 2011, published 2014).
Read-outs that look alike come from different tables or passages of the source.

Experiments:
[1] = system: model of sustained atrial fibrillation; assay: Test Example 1: screening for atrial fibrillation inhibitor, intravenous injection, Holter electrocardiogram; details: for Frequency of Atrial Fibrillation Termination: X/Y individuals terminated
normal beagle dogs [2] = details: dog, in vivo, iv
[3] = system: model of sustained atrial fibrillation; assay: Test Example 2: study of dose and combined use of oseltamivir, with 24 hour follow-up for recurrence; assay type: in vivo, beagle dog; details: for Frequency of Atrial Fibrillation Recurrence: 24 hours follow-up after termination
From the text: Oseltamivir (oseltamivir phosphate, trade name: TAMIFLU (registered trademark), product of CHUGAI PHARMACEUTICAL CO., LTD.; phosphate of the compound represented by Structural Formula (I))) and/or pilsicainide (pilsicainide hydrochloride, trade name: […] (registered trademark), product of DAIICHI SANKYO COMPANY, LIMITED), which had been diluted with saline to doses as described in Table 2-1, was intravenously injected to the model of sustained atrial fibrillation produced in Production Example 1 in doses described in Table 2-1 for 10 min.
During from before the administration to after the administration, the electrocardiogram was monitored in the same manner as in Test Example 1, and the frequency of atrial fibrillation termination and the defibrillation rate were determined in the same manner as in Test Example 1. For individuals in which atrial fibrillation was terminated, an electrocardiographic follow-up was performed for 24 hours after atrial fibrillation was terminated to thereby determine whether atrial fibrillation recurred.

normal beagle dogs [4] = assay: Test Example 3: study of effect on QT prolongation (ECG, MAP90, ERP)
[5] = 3 mg/kg intravenous over 10 min
[6] = high dose 30 mg/kg intravenous over 10 min
[7] = low dose 3 mg/kg intravenous over 10 min
[8] = 30 mg/kg intravenous over 10 min

CCN(CC)CCCN(c1ccccc1)C1Cc2ccccc2C1 [Aprindine, aprindine]
Defibrillation Rate [1, 5]: 0% | Frequency of Atrial Fibrillation Termination [1, 5]: 0/6

c1ccc(C2(c3ccccc3)CC2C2=NCCN2)cc1 (centres unmarked) [Cibenzoline, cibenzoline]
Defibrillation Rate [1, 5]: 33.3% | Frequency of Atrial Fibrillation Termination [1, 5]: 2/6

CC(C)N(CCC(C(N)=O)(c1ccccc1)c1ccccn1)C(C)C (centres unmarked) [Disopyramide, disopyramide]
Frequency of Atrial Fibrillation Termination [1, 5]: 1/6 | death of the model animal after administration ([1]; 3 mg/kg intravenous, 1 individual, FIG. 6A): confirmed to be dead | termination of atrial fibrillation on electrocardiogram ([1]; 3 mg/kg intravenous, 1 individual, FIGS. 6A to 6C): could not terminate atrial fibrillation | MAP90 (CL300) versus MAP90 (CL400), MAP prolongation pattern (normal beagle dogs [2]): dangerous MAP prolongation pattern | prolongation of QT and QTc, QT prolongation pattern (normal beagle dogs [2]): longer prolongations of QT and QTc than that of the oseltamivir-administered group, and a dangerous QT prolongation pattern

Cc1cccc(C)c1NC(=O)CC12CCCN1CCC2 [Pilsicainide, pilsicainide]
Defibrillation Rate [1, 5]: 33.3% | Frequency of Atrial Fibrillation Termination [1, 5]: 2/6 | MAP90 (CL300) versus MAP90 (CL400), MAP prolongation pattern (normal beagle dogs [2]): dangerous MAP prolongation pattern | prolongation of QT and QTc, QT prolongation pattern (normal beagle dogs [2]): longer prolongations of QT and QTc than that of the oseltamivir-administered group, and a dangerous QT prolongation pattern

CCOC(=O)C1=C[C@@H](OC(CC)CC)[C@H](NC(C)=O)[C@@H](N)C1 [Oseltamivir, oseltamivir]
Defibrillation Rate [3, 6]: 100% | Frequency of Atrial Fibrillation Termination [3, 6]: 5/5 | Frequency of Atrial Fibrillation Recurrence [3, 6]: 2/5 | Defibrillation Rate [3, 7]: 25% | Frequency of Atrial Fibrillation Termination [3, 7]: 1/4 | Frequency of Atrial Fibrillation Recurrence [3, 7]: 0/1 | Defibrillation Rate [1, 8]: 91.7% | adverse effect on the ventricle [1, 8]: does not adversely affect the ventricle | Frequency of Atrial Fibrillation Termination [1, 8]: 11/12 | Defibrillation Rate ([1]; 30 mg/kg intravenous over 10 min, listed as oseltamivir): very high | prolongation of QT and QTc, QT prolongation pattern (normal beagle dogs [4]; anesthetized normal dogs, intravenous doses increased stepwise every 30 min (Table 3), FIGS. 7 to 10): short prolongations of QT and QTc and a safe QT prolongation pattern | prolongation of P wave width on the electrocardiogram (index of inhibitory effect on Na channels in the atrial muscle) (normal beagle dogs [4]; sinus rhythm, 0.3, 3, 30 mg/kg intravenous stepwise, FIG. 7): longer prolongation of P wave | MAP90 (CL300) versus MAP90 (CL400), MAP prolongation pattern (normal beagle dogs [4]; ventricular pacing at cycle length 300 msec (200 bpm) and 400 msec (150 bpm), stepwise intravenous doses (Table 3)): safe MAP prolongation pattern
